Like-named read-outs stand apart in the source and are kept apart here.

Consider 8 molecules from patent publication US20120183493A1, “NOVEL POLYMERS” (PharmaPatents Global Ltd., priority 2009, published 2012).

Series [1] has as its system fibroblasts from human hypertrophic scars. The following applies: cited from earlier work; for proliferation of fibroblasts derived from hypertrophic scars: compound alone; for effect on AT II-stimulated increase in DNA synthesis: cultured fibroblasts, stimulation with AT II.
A short description of series [2]: Solubility of the purified solid in organic solvents. In kind it is physicochemical. On the procedure:
4 g of captopril in 15 ml of toluene with 0.5 g of Novozyme lipase B from Candida antartica was stirred in a 100 ml round bottom flask fitted with a drying tube (containing 3 Å molecular sieves and indicator silica gel) for 48 hours at 110° C. using a hotplate and magnetic stirrer. 50 ml of THF was then added and the enzyme was removed by filtration.
4 g of captopril lactone in 15 ml of toluene with 0.5 g of Novozyme lipase B from Candida antartica was stirred in a 100 ml round bottom flask fitted with a drying tube (containing 3 Å molecular sieves and indicator silica gel) for 48 hours at 110° C. using a hotplate and magnetic stirrer. 50 ml of THF was then added and the enzyme was removed by filtration.

Another series has as its system hypertrophied scars. The following applies: topical application, animal model of pathologic scarring; cited from earlier work.
The subject of series [3] is guinea pig gingival fibroblast cells. The following applies: cited from earlier work.
The test system of the next series is keloid scar. The following applies: cited from earlier work.
The subject of series [4] is experimental hepatic fibrosis. The following applies: rats; cited from earlier work.
The next series deals with dermal healing. The following applies: by reducing fibrosis and improving collagen remodelling; cited from earlier work.
The mark [5] stands for this setting: phenytoin- or nifedipine-induced gingival fibroblasts.

Consider `Cc1cc(Cn2cnc3c2C[C@@H](C(=O)O)N(C(=O)C(c2ccccc2)c2ccccc2)C3)ccc1N(C)C` [PD123319], for which, in series [1], the “proliferation of fibroblasts derived from hypertrophic scars” value is “did not influence” and the “effect on AT II-stimulated increase in DNA synthesis” value is reported as “augmented”.

`C[C@@H]1CSC(=O)[C@@H]2CCCN2C1=O` [captopril lactone]: in series [2], the “solubility in THF” value is recorded as “freely soluble”, the solubility in chloroform entry is “freely soluble” and the solubility in methanol result is on record as “freely soluble”.

Turning to `C[C@H](CS)C(=O)N1CCC[C@H]1C(=O)O` [captopril], the “formation of hypertrophied scars” value in the series with hypertrophied scars is recorded as “prevented the formation of hypertrophied scars”. In series [3] (setting [5]), the “development of induced proliferation” value is given as “inhibited the development of proliferation” and the “immunostaining intensities of immunoreactive angiotensin II” value was “reduced these enhanced immunostaining intensities to control levels”. Further, in series [2], the “solubility in THF” value is recorded as “freely soluble”, the solubility in chloroform entry is listed as “freely soluble” and the solubility in methanol result was “freely soluble”.

`CCOC(=O)[C@H](CCc1ccccc1)N[C@@H](C)C(=O)N1CCC[C@H]1C(=O)O` [enalapril]: the keloid scar outcome in the series with keloid scar (first patient (co-author), 10 mg once daily) is given as “rapidly improved”; in the series with keloid scar (person with diabetes, same low dose, after six months of therapy), “marked improvement”.

In the case of `CCC[C@H](N[C@@H](C)C(=O)N1[C@H](C(=O)O)C[C@@H]2CCCC[C@@H]21)C(=O)OCC` [perindopril], the “progression of experimental hepatic fibrosis” value in series [4] is reported as “ameliorate progression”.

As for `O=C1NC(=O)C(c2ccccc2)(c2ccccc2)N1` [phenyloin], in series [3] (guinea pig gingival fibroblast cells), the “proliferation of gingival fibroblast cells” value is recorded as “induced proliferation”.

Consider `CCCCC(=O)N(Cc1ccc(-c2ccccc2-c2nnn[nH]2)cc1)[C@H](C(=O)O)C(C)C` [valsartan], for which, in series [1], the “proliferation of fibroblasts derived from hypertrophic scars” value was “did not influence” and the “effect on AT II-stimulated increase in DNA synthesis” value is given as “inhibited”. Further, the “progression of experimental hepatic fibrosis” value in series [4] is on record as “ameliorate progression”.

For “Ang(1-7): angiotensin peptide Ang(1-7) (DRVYIHP; Angiotensin 1-7; UniProt P01019 25-31, looked up, fragment)”, the “dermal healing following wounding” value in the series on dermal healing was “accelerate dermal healing”.
